# Patent US6969731B1, “Protease inhibitors that overcome drug resistance” (The University of Illinois, Board of Trustees, priority 1999, dated 2005)
# Values joined by “and” are separate entries in the source; they are usually repeats but may differ in a detail not shown here. Equal entries are not always repeated.
# How the values were obtained:
# Assay type in all cases: biochemical
# wild type HIV-1 protease = target: T1, wild type HIV-1 protease (Human immunodeficiency virus type 1 group M subtype B, UniProt P04585); test: Ki determination, wild-type HIV-1 protease; details: W.T. HIV-1 protease; with standard error
# T1 construct: The active HIVPr is a homodimer of 99-residue monomers; made in house; host or cells: E. coli
# Text: (§1) The wild-type HIV-1 Pr was produced as recombinant enzyme in E. coli as described by Ido et al. ( 1991) J. Biol. Chem. 266:24359-24366.
# [1] = target: T2, HIV-1 protease resistant mutant V82A (Human immunodeficiency virus type 1 group M subtype B, UniProt P04585, V570A); details: V82A mutant; with standard error
# T2 construct: The active HIVPr is a homodimer of 99-residue monomers; made in house
# [2] = tested on: HIV-1 protease resistant mutant V82A; details: Ki,mut V82A / Ki wild-type
# [3] = target: T3, HIV-1 protease resistant mutant I84V (Human immunodeficiency virus type 1 group M subtype B, UniProt P04585, I572V); details: I84V mutant; with standard error
# T3 construct: The active HIVPr is a homodimer of 99-residue monomers; made in house
# [4] = tested on: HIV-1 protease resistant mutant I84V; details: Ki,mut I84V / Ki wild-type
# [5] = target: T4, HIV-1 protease resistant mutant I15V (Human immunodeficiency virus type 1 group M subtype B, UniProt P04585, I503V); details: I15V mutant; with standard error
# T4 construct: The active HIVPr is a homodimer of 99-residue monomers; made in house
# [6] = tested on: HIV-1 protease resistant mutant I15V; details: Ki,mut I15V / Ki wild-type
# [7] = target: T5, HIV-1 protease resistant mutant K20R (Human immunodeficiency virus type 1 group M subtype B, UniProt P04585, K508R); details: K20R mutant; with standard error
# T5 construct: The active HIVPr is a homodimer of 99-residue monomers; made in house
# [8] = tested on: HIV-1 protease resistant mutant K20R; details: Ki,mut K20R / Ki wild-type
# [9] = target: T6, HIV-1 protease resistant mutant M46I (Human immunodeficiency virus type 1 group M subtype B, UniProt P04585, M534I); details: M46I mutant; with standard error
# T6 construct: The active HIVPr is a homodimer of 99-residue monomers; made in house
# [10] = tested on: HIV-1 protease resistant mutant M46I; details: Ki,mut M46I / Ki wild-type
# [11] = target: T7, HIV-1 protease resistant mutant L10I (Human immunodeficiency virus type 1 group M subtype B, UniProt P04585, L498I); details: L10I mutant; with standard error
# T7 construct: The active HIVPr is a homodimer of 99-residue monomers; made in house
# [12] = tested on: HIV-1 protease resistant mutant L10I; details: Ki,mut L10I / Ki wild-type
# [13] = target: T8, HIV-1 protease resistant mutant G48V (Human immunodeficiency virus type 1 group M subtype B, UniProt P04585, G536V); details: G48V mutant; with standard error
# T8 construct: The active HIVPr is a homodimer of 99-residue monomers; made in house
# [14] = tested on: HIV-1 protease resistant mutant G48V; details: Ki,mut G48V / Ki wild-type
# [15] = target: T9, HIV-1 protease resistant mutant L90M (Human immunodeficiency virus type 1 group M subtype B, UniProt P04585, L578M); details: L90M mutant; with standard error
# T9 construct: The active HIVPr is a homodimer of 99-residue monomers; made in house
# [16] = tested on: HIV-1 protease resistant mutant L90M; details: Ki,mut L90M / Ki wild-type
# [17] = target: T10, HIV-1 protease resistant mutant I64V (Human immunodeficiency virus type 1 group M subtype B, UniProt P04585, I552V); details: I64V mutant; with standard error
# T10 construct: The active HIVPr is a homodimer of 99-residue monomers; made in house
# [18] = tested on: HIV-1 protease resistant mutant I64V; details: Ki,mut I64V / Ki wild-type
# [19] = target: T11, HIV-1 protease resistant mutant I93L (Human immunodeficiency virus type 1 group M subtype B, UniProt P04585, I581L); test: Ki determination, HIV-1 protease mutant I93L
# T11 construct: The active HIVPr is a homodimer of 99-residue monomers; made in house
# Text: as §1
structure (smiles),measurement,setting,value
"CC(C)CN(CC(O)C(Cc1ccccc1)NC(=O)C(Cc1ccccc1)CC(O)C(Cc1ccccc1)NC(=O)OC1CCCO1)S(=O)(=O)c1cccc(O)c1 [UIC-98-056, (1′S,2R,2′R,3S,5′S)-3-[N-[2′-Benzyl-5′-[N-(2-tetrahydrofuranyloxycarbonyl]amino-4′-hydroxy-6′-phenyl-1′-oxo]hexyl]amino-2-hydroxy-1-[N-isobutylamino-N′[3-hydroxybenzene)sulfonamido]]-4-[phenylbutane]",Ki,wild type HIV-1 protease,6.2 ± 0.8 nM
same,Ki,[1],6.23 ± 1.2 nM
same,fold of Ki increase from that of the wild-type,[2],1.0 fold
same,Ki,[3],55.3 ± 0.46 nM
same,fold of Ki increase from that of the wild-type,[4],9 fold and 8.9 fold
same,Ki,[5],1.22 ± 0.14 nM
same,fold of Ki increase from that of the wild-type,[6],0.2 fold
same,Ki,[7],2.9 ± 0.74 nM
same,fold of Ki increase from that of the wild-type,[8],0.5 fold
same,Ki,[9],3.16 ± 0.81 nM
same,fold of Ki increase from that of the wild-type,[10],0.5 fold
same,Ki,[11],1.03 ± 0.25 nM
same,fold of Ki increase from that of the wild-type,[12],0.2 fold
same,Ki,[13],8.7 ± 1.4 nM
same,fold of Ki increase from that of the wild-type,[14],1.4 fold
same,Ki,[15],2.1 ± 0.5 nM
same,fold of Ki increase from that of the wild-type,[16],0.3 fold
same,Ki,[17],6.24 ± 1.52 nM
same,fold of Ki increase from that of the wild-type,[18],1.0 fold
same,Ki,"[19]; I93L mutant, with standard error",3.05 ± 0.64 nM
same,fold of Ki increase from that of the wild-type,"[19]; Ki,mut I93L / Ki wild-type",0.5 fold
